Patent US9232796B2, “Herbicidal compositions comprising 4-amino-3-chloro-5-fluoro-6-(4-chloro-2-fluoro-3-methoxyphenyl) pyridine-2-carboxylic acid or a derivative thereof and acetyl-CoA carboxylase (ACCase) inhibitors” (DOW AGROSCIENCES LLC, priority 2012, dated 2016)

Experiments:
ECHCO = assay: Example I postemergence foliar-applied, greenhouse, direct seeded rice weeds; type: in vivo, Echinochloa colona (L.) Link
Excerpt: (§1) Seeds or nutlets of the desired test plant species were planted in a soil matrix prepared by mixing a loam or sandy loam soil (e.g., 28.6 percent silt, 18.8 percent clay, and 52.6 percent sand, with a pH of about 5.8 and an organic matter content of about 1.8 percent) and calcareous grit in an 80 to 20 ratio. The soil matrix was contained in plastic pots with a volume of 1 quart and a surface area of 83.6 square centimeters (cm^2). When required to ensure good germination and healthy plants, a fungicide treatment and/or other chemical or physical treatment was applied. The plants were grown for 8-22 days in a greenhouse with an approximate 14 hr. photoperiod which was maintained at about 29° C. during the day and 26° C. during the night. Nutrients (Peters Excel® 15-5-15 5-Ca 2-Mg and iron chelate) were applied in the irrigation solution as needed and water was added on a regular basis. Supplemental lighting was provided with overhead metal halide 1000-Watt lamps as necessary. The plants were employed for testing when they reached the first through fourth true leaf stage.
(§2) Treatments consisted of the acid or esters of 4-amino-3-chloro-5-fluoro-6-(4-chloro-2-fluoro-3-methoxy-phenyl)pyridine-2-carboxylic acid (Compound A), each formulated as an SC (suspension concentrate), and various herbicidal components alone and in combination.
(§3) Other herbicidal components were applied on an acid equivalent (ae) or active ingredient (ai) basis and included acetyl coA carboxylase (ACCase)-inhibiting herbicides (cyclohexanedione and aryloxyphenoxypropionate chemical classes) cyhalofop-butyl formulated as Clincher® SF (285 gr ai/L EC), diclofop-methyl formulated as Hoelon® 3EC, fenoxaprop-p-ethyl+isoxadifen-ethyl formulated as RiceStar® HT (0.58 lb./gal EC), fenoxaprop-p-ethyl+mefenpyr diethyl formulated as Puma® IEC, metamifop formulated as Metamifop EC, haloxyfop-methyl formulated as Gallant Super®, fluazifop-p-butyl formulated as Fusilade® DX, quizalofop-p-ethyl formulated as Assure® II, profoxydim formulated as Aura® 20EC, clethodim applied as Intensity®, sethoxydim formulated as Poast®, and tralkoxydim formulated as Achieve®.
(§4) Treatment requirements were calculated based upon the rates being tested, the concentration of active ingredient or acid equivalent in the formulation, and a 12 mL application volume at a rate of 187 L/ha.
(§5) For treatments comprised of formulated compounds, measured amounts of compounds were placed individually in 25 mL glass vials and diluted in a volume of 1.25% (v/v) Agri-Dex® crop oil concentrated to obtain 12× stock solutions. […] Application solutions were prepared by adding an appropriate amount of each stock solution (e.g., 1 mL) and diluted to the appropriate final concentrations with the addition of 10 mL of an aqueous mixture of 1.25% (v/v) crop oil concentrate so that the final spray solutions contained 1.25+/−0.05% (v/v) crop oil concentrate.
(§6) All stock solutions and applications solutions were visually inspected for compound compatibility prior to application. Spray solutions were applied to the plant material with an overhead Mandel track sprayer equipped with a 8002E nozzles calibrated to deliver 187 L/ha over an application area of 0.503 m^2 at a spray height of 18 to 20 inches (46 to 50 cm) above average plant canopy height. Control plants were sprayed in the same manner with the solvent blank.
(§7) The treated plants and control plants were placed in a greenhouse as described above and watered by sub-irrigation to prevent wash-off of the test compounds. After approximately 3 weeks, the condition of the test plants as compared with that of the untreated plants was determined visually and scored on a scale of 0 to 100 percent where 0 corresponds to no injury or growth inhibition and 100 corresponds to complete kill. […]

SCPJU [1] = assay: as above; type: in vivo, Schoenoplectus juncoides (Roxb.) Palla
Excerpt: as §1, §2, §3, §4, §5, §6, §7

BRAPP = assay: as above; type: in vivo, Brachiaria platyphylla (Griseb.) Nash
Excerpt: as §1, §2, §3, §4, §5, §6, §7

SCPJU [2] = assay: Example II in-water applied, greenhouse, transplanted paddy rice weeds; type: in vivo, Schoenoplectus juncoides (Roxb.) Palla; details: in-water
Method: (§8) Weed seeds or nutlets of the desired test plant species were planted in puddled soil (mud) prepared by mixing a shredded, non-sterilized mineral soil (50.5 percent silt, 25.5 percent clay, and 24 percent sand, with a pH of about 7.6 and an organic matter content of about 2.9 percent) and water at a 1:1 volumetric ratio. The prepared mud was dispensed in 365 mL aliquots into 16-ounce (oz.) non-perforated plastic pots with a surface area of 86.59 square centimeters (cm^2) leaving a headspace of 3 centimeters (cm) in each pot. Mud was allowed to dry overnight prior to planting or transplanting. Rice seeds were planted in Sun Gro MetroMix® 306 planting mixture, which typically has a pH of 6.0 to 6.8 and an organic matter content of about 30 percent, in plastic plug trays. Seedlings at the second or third leaf stage of growth were transplanted into 860 mL of mud contained in 32-oz. non-perforated plastic pots with a surface area of 86.59 cm^2 4 days prior to herbicide application. The paddy was created by filling the headspace of the pots with 2.5 to 3 cm of water. […] The plants were grown for 4-22 days in a greenhouse with an approximate 14 hr. photoperiod which was maintained at about 29° C. during the day and 26° C. during the night. Nutrients were added as Osmocote® (19:6:12, N:P:K+minor nutrients) at 2 g per 16-oz. pot and 4 g per 32-oz. pot. Water was added on a regular basis to maintain the paddy flood, and supplemental lighting was provided with overhead metal halide 1000-Watt lamps as necessary. The plants were employed for testing when they reached the first through fourth true leaf stage.
(§9) Treatments consisted of the acid or esters of 4-amino-3-chloro-5-fluoro-6-(4-chloro-2-fluoro-3-methoxy-phenyl)pyridine-2-carboxylic acid (compound A) each formulated as an SC (suspension concentrate) and various herbicidal components alone and in combination.
(§10) For formulated compounds, a measured amount was placed in an individual 100 or 200 mL glass vial and was dissolved in a volume of 1.25% (v/v) Agri-Dex® crop oil concentrate to obtain application solutions.
(§11) Applications were made by injecting with a pipetter appropriate amounts of the application solutions, individually and sequentially, into the aqueous layer of the paddy. Control plants were treated in the same manner with the solvent blank. Applications were made so that all treated plant material received the same concentrations of acetone and crop oil concentrate.
(§12) The treated plants and control plants were placed in a greenhouse as described above and water was added as needed to maintain a paddy flood. After approximately 3 weeks the condition of the test plants as compared with that of the untreated plants was determined visually and scored on a scale of 0 to 100 percent where 0 corresponds to no injury or growth inhibition and 100 corresponds to complete kill.
(§13) Colby's equation was used to determine the herbicidal effects expected from the mixtures (Colby, S. R. 1967. Calculation of the synergistic and antagonistic response of herbicide combinations. Weeds 15:20-22.).
(§14) The following equation was used to calculate the expected activity of mixtures containing two active ingredients, A and B: Expected=A+B−(A×B/100)

CYPRO = assay: as above; type: in vivo, Cyperus rotundus L.
Method: as §8, §9, §10, §11, §12, §13, §14

IPOHE = assay: Example I postemergence foliar-applied, greenhouse, direct seeded rice weeds; type: in vivo, Ipomoea hederacea Jacq.
Excerpt: as §1, §2, §3, §4, §5, §6, §7

FIMMI = assay: Example VI in-water applied ternary mixtures, greenhouse, transplanted paddy rice weeds; type: in vivo, Fimbristylis miliacea (L.) Vahl; details: Table 67, 50 gai/ha, 24 DAA
Method: (§15) Weed seeds or nutlets of the desired test plant species were planted in puddled soil (mud) prepared by mixing a shredded, non-sterilized mineral soil (50.5 percent silt, 25.5 percent clay, and 24 percent sand, with a pH of about 7.6 and an organic matter content of about 2.9 percent) and water at a 1:1 volumetric ratio. The prepared mud was dispensed in 365 mL aliquots into 16-ounce (oz.) non-perforated plastic pots with a surface area of 86.59 square centimeters (cm^2) leaving a headspace of 3 centimeters (cm) in each pot. Mud was allowed to dry overnight prior to planting or transplanting. Rice seeds were planted in Sun Gro MetroMix® 306 planting mixture, which typically has a pH of 6.0 to 6.8 and an organic matter content of about 30 percent, in plastic plug trays. Seedlings at the second or third leaf stage of growth were transplanted into 860 mL of mud contained in 32-oz. non-perforated plastic pots with a surface area of 86.59 cm^2 4 days prior to herbicide application. The paddy was created by filling the headspace of the pots with 2.5 to 3 cm of water. When required to ensure good germination and healthy plants, a fungicide treatment and/or other chemical or physical treatment was applied. The plants were grown for 4-22 days in a greenhouse with an approximate 14 hr. photoperiod which was maintained at about 29° C. during the day and 26° C. during the night. Nutrients were added as Osmocote® (19:6:12, N:P:K+minor nutrients) at 2 g per 16-oz. pot and 4 g per 32-oz. pot. Water was added on a regular basis to maintain the paddy flood, and supplemental lighting was provided with overhead metal halide 1000-Watt lamps as necessary. The plants were employed for testing when they reached the first through fourth true leaf stage.
(§16) Treatments consisted of the benzyl ester of 4-amino-3-chloro-5-fluoro-6-(4-chloro-2-fluoro-3-methoxy-phenyl)pyridine-2-carboxylic acid (Compound A), formulated as an SC (suspension concentrate), an ACCase inhibitor herbicide, and a third herbicidal component, each applied alone and in ternary combination. Forms of compound A were applied on an acid equivalent basis.
(§17) The ACCase inhibitor component was applied on an active ingredient basis and included cyhalofop-R-butyl formulated as Clincher® G and metamifop formulated as Metamifop EC. Other herbicidal components were applied on an active ingredient or acid equivalent basis depending on the compound and included penoxsulam formulated as Grasp® SC, bentazon sodium formulated as Basagran®, triclopyr […] (TEA) salt formulated as Grandstand® R, benzobicyclon formulated as Benzobicyclon, benfuresate formulated as Full Slot® WG, pyraclonil formulated as Pyraclon® Flowable, mefenacet (technical grade material), and pretilachlor (technical grade material).
(§18) Treatment requirements for each compound or herbicidal component were calculated based upon the rates being tested, the concentration of active ingredient or acid equivalent in the formulation, an application volume of 1 mL per component per pot, and an application area of 86.59 cm^2 per pot.
as §10
(§19) For technical grade compounds, a weighed amount was placed in an individual 100 to 200 mL glass vial and was dissolved in a volume of acetone to obtain concentrated stock solutions.
as §11, with “solutions,” for “solutions, individually and sequentially,”
(§20) The treated plants and control plants were placed in a greenhouse as described above and water was added as needed to maintain a paddy flood. […]

ECHOR = assay: as above; type: in vivo, Echinochloa oryzoides (Ard.) Fritsch
Method: as §15, §16, §17, §18, §10, §19
as §11, with “solutions,” for “solutions, individually and sequentially,”
as §20

ECHCG = assay: as above; type: in vivo, Echinochloa crus-galli (L.) Beauv.; details: Table 67, 100 gai/ha, 21 DAA
Method: as §15, §16, §17, §18, §10, §19
as §11, with “solutions,” for “solutions, individually and sequentially,”
as §20

COC(=O)[C@@H](C)Oc1ccc(Oc2ncc(C(F)(F)F)cc2Cl)cc1 [Haloxyfop-methyl, methyl(2R)-2-[4-[[3-chloro-5-(trifluoromethyl)-2-pyridinyl]oxy]phenoxy]propanoate]
Visual Weed Control (%) - 20 DAA ECHCO Obs (ECHCO; 6.75 gai/ha): 0%
Visual Weed Control (%) - 20 DAA ECHCO Obs (ECHCO; 13.5 gai/ha): 0%
Visual Weed Control (%) - 20 DAA ECHCO Obs (ECHCO; 27 gai/ha): 0%
Visual Weed Control (%) - 20 DAA SCPJU Obs (SCPJU [1]; 6.75 gai/ha): 0%
Visual Weed Control (%) - 20 DAA SCPJU Obs (SCPJU [1]; 13.5 gai/ha): 0%
Visual Weed Control (%) - 20 DAA SCPJU Obs (SCPJU [1]; 27 gai/ha): 0%
Visual Weed Control (%) - 20 DAA BRAPP Obs (BRAPP; 6.75 gai/ha): 0%
Visual Weed Control (%) - 20 DAA BRAPP Obs (BRAPP; 13.5 gai/ha): 0%
Visual Weed Control (%) - 20 DAA SCPJU Obs (SCPJU [2]; 13.5 gai/ha): 0%
Visual Weed Control (%) - 20 DAA SCPJU Obs (SCPJU [2]; 27 gai/ha): 0%
Visual Weed Control (%) - 20 DAA CYPRO Obs (CYPRO; 13.5 gai/ha): 0%
Visual Weed Control (%) - 20 DAA CYPRO Obs (CYPRO; 27 gai/ha): 0%
Visual Weed Control (%) - 20 DAA IPOHE Obs (IPOHE; 6.75 gai/ha): 0%
Visual Weed Control (%) - 20 DAA IPOHE Obs (IPOHE; 13.5 gai/ha): 0%
Visual Weed Control (%) - 20 DAA IPOHE Obs (IPOHE; 27 gai/ha): 0%

CS(=O)(=O)c1ccc(C(=O)C2=C(Sc3ccccc3)C3CCC(C3)C2=O)c(Cl)c1 (stereo not shown) [Benzobicylon]
Visual Weed Control (%) - 24 DAA FIMMI Obs (FIMMI): 68%
Visual Weed Control (%) - 24 DAA ECHOR Obs (ECHOR; Table 67, 25 gai/ha): 10%
Visual Weed Control (%) - 24 DAA ECHOR Obs (ECHOR; Table 67, 50 gai/ha): 10%
Visual Weed Control (%) - 21 DAA ECHCG Obs (ECHCG): 20%
